One data set relates to amylase. As to the kind of experiment: Amylase test in vitro (amylase inhibitor unit). In kind it is biochemical. Conditions: 1 AIU = amount of inhibitor for about 50% inhibition; starch substrate, pH 6.9, 35° C. As to the method: The amylase activity of the novel amino sugar compound of the present invention was measured by the following method.
Amylase inhibitor unit (1 AIU) is defined as the amount of inhibitor required to control the amylase unit by about 50%. The amylase unit (AU) is the value of enzyme to divide 1μ equivalent of glucoside bond in starch for 1 minute under the following test conditions. The μ equivalent of this divided bond is determined as reduced μ equivalent of sugar formed by Kurie's method which uses dinitrosalicylic acid. Standard curve using maltose is given as μ equivalent of maltose equivalent. A testing solution (0-20 μl) in 0.4 ml of a solution (pH 6.9) containing 0.001 mol of CaCl2, 0-10 μg of the inhibitor and 0.02 mol of sodium glycerophosphate is added to 0.1 ml of an amylase solution (20 to 22 AU/ml). This mixture is equilibrated in a water bath of 35° C. for about 10-20 minutes. Then, this is cultured at 35° C. for 5 minutes together with 0.5 ml of a 1% starch solution (soluble starch No. 1,252 from Marck, Darmstadt) preheated to 35° C. and thereafter 1 ml of dinitrosalicylic acid reagent (P. Bernfeld, Colowick-Kaplan, Meth. Enzymol., 1, 149) is added thereto. For developing color, the batch is heated in a boiling water bath for 5 minutes and then cooled and 10 ml of distilled water is added thereto. Absorbance of 540 nm is measured in comparison with blanks prepared in the same manner without using amylase. For evaluation, amylase activity which is still effective after addition of inhibitor is read from previously recorded amylase standard curve and inhibiting rate (%) of the amylase used is calculated from said amylase activity. The inhibiting rate is plotted as function of the quotient: [formula] Inhibiting point of 50% is read from this curve and is converted to AIU/mg of the inhibitor.

The next data set is described as follows: Solubility in solvents. In kind it is physicochemical.
[1] abbreviates: acetone, ethyl acetate, chloroform.
[2] abbreviates: water, methanol, dimethylformamide, dimethylsulfoxide, hot ethanol.

With `OCC1=CC(NC2C(CO)OC(O[C@H]3[C@H](O)[C@@H](O)C(O)O[C@@H]3CO)C(O)C2O)C(O)C(O)C1O` (some centres unmarked) [[I] (wherein n=1 and m=0)], in the data set with amylase, the Amylase inhibitor unit was 3.4×10^2 AIU/mg. Moreover, the Solubility in solvents entry in the data set “Solubility in solvents” (setting [1]) is listed as “insoluble”; in “Solubility in solvents” (setting [2]) it was “soluble”.
Turning to `OCC1=CC(NC2C(CO)OC(O[C@H]3[C@H](O)[C@@H](O)C(O[C@H]4[C@H](O)[C@@H](O)C(O)O[C@@H]4CO)O[C@@H]3CO)C(O)C2O)C(O)C(O)C1O` (some centres unmarked) [[I] (wherein n=2 and m=0)], in the data set with amylase, the Amylase inhibitor unit is reported as 3.6×10^2 AIU/mg. For the same compound, the results for the Solubility in solvents result in “Solubility in solvents” (setting [1]) and in the data set “Solubility in solvents” (setting [2]) were “insoluble” and “soluble”, respectively.
With `OCC1=CC(NC2C(CO)OC(O[C@H]3[C@H](O)[C@@H](O)C(O[C@H]4[C@H](O)[C@@H](O)C(O)O[C@@H]4CO)O[C@@H]3CO)C(O)C2O)C(O)C(O)C1OC1O[C@H](CO)[C@@H](O)[C@H](O)[C@H]1O` (some centres unmarked) [[I] (wherein n=2, m=1)], the Amylase inhibitor unit with amylase was 1.2×10^3 AIU/mg.
`OCC1=CC(NC2C(CO)OC(O[C@H]3[C@H](O)[C@@H](O)C(O[C@H]4[C@H](O)[C@@H](O)C(O[C@H]5[C@H](O)[C@@H](O)C(O)O[C@@H]5CO)O[C@@H]4CO)O[C@@H]3CO)C(O)C2O)C(O)C(O)C1O` (some centres unmarked) [[I] (wherein n=3, m=0)]: in the data set with amylase, the Amylase inhibitor unit is 1.4×10^3 AIU/mg.

For the origin of these results see patent publication US4254256A, “Amino sugar compound” (Toyo Jozo company, Ltd., priority 1977, dated 1981).
